Measured values: US20230277575A1 (priority 2020, published 2023)

Experiments:
in vitro = details: human
SARS-CoV-2 [1] = test: SARS-CoV-2 virus production in Vero E6 cells (TCID50); format: cell-based; details: for antiviral activity (conclusion, in words): SARS-CoV-2; for IC50: Severe acute respiratory syndrome coronavirus 2, Vero C1008, TCID50, Vero E6 cells, MOI 10^−3; for virus production (in words): increased drug concentration, dose response
Description: (§1) Seeding of cells and treatment with compound of interest were performed with each compound in triplicate at 5 concentrations, including negative and positive controls. Infection with SARS-CoV-2 was performed at one MOI (multiplicity of infection). Viral particles were recovered in the supernatant after incubation and quantification using TCID50 (tissue culture infectious dose 50%) and RT-PCR was performed. Toxicity measurement of compounds was made on separate cell lines. D1: cell seeding on 96 wells plate, Vero E6 cells. Growth conditions: medium DMEM high glucose (Dutsher L0104-500, lot MS008A) D2: dilution of compounds was carried out in a mix of 100% DMSO diluted to 50% in PBS (NACL-2) or in PBS at […] to avoid solubility issues of some compounds. Compounds were tested at 5 concentrations, from 10^−4 M to 10^−8 M by serial tenfold dilutions. Infection with SARS-CoV-2 clinical strain was performed to MOI 10^−3. D3: viral titers were determined by TCID50 method and calculated by the Spearman & Kärber algorithm. RT-qPCR on gene E of SARS-CoV-2 was determined by Taqman One-Step RT-qPCR. Infection process: at T0 infection was performed with SARS-CoV-2 MOI 10^−3 (0.001). At T0+1 h virus was removed and the plates were washed with PBS (2×1 mL), 1 mL medium was then added with compound from 100 μM to 10 nM. A 24 h incubation step was carried out. At T0+25 h, 500 μL of supernatant was recovered and TCID50 processing and RT-qPCR were performed. Following 4 additional days of incubation the endpoint was obtained and TCI D50 reading and calculation was performed.

SARS-CoV-2 [2] = test: SARS-CoV-2 genome copy number by RT-qPCR on gene E (Vero E6 cells); format: cell-based; details: for genome copy number (in words): increased drug concentration
Description: as §1

[3] = Toxicity testing on Vero cells; details: African green monkey, Vero cells, CC50, Vero cells, 24 h post treatment
Vero cells = test: Toxicity testing on Vero cells; details: for CC50: Vero cells, 24 h post treatment

| SMILES | CC50 (in vitro) | antiviral activity (conclusion, in words) (SARS-CoV-2 [1]) | IC50 (SARS-CoV-2 [1]) | log decrease in viral production (SARS-CoV-2 [1]; at 10 μM) | toxicity observed in virus production test (SARS-CoV-2 [1]; at 100 μM) | virus production (in words) (SARS-CoV-2 [1]) | IC50 times lower than that of Remdesivir (SARS-CoV-2 [1]; virus production IC50) | IC50 (SARS-CoV-2 [2]; Severe acute respiratory syndrome coronavirus 2, Vero C1008, RT-qPCR on gene E, Vero E6 cells) | log decrease in copy genome (SARS-CoV-2 [2]; at 10 μM) | toxicity observed in RT-qPCR test (SARS-CoV-2 [2]; at 100 μM) | genome copy number (in words) (SARS-CoV-2 [2]) | CC50 at 24 h [3] | CC50 (Vero cells; listed as clitocine) | toxicity on Vero cells (in words) (Vero cells; depending on the concentration used) | IC50 times lower than that of NACI-1 (SARS-CoV-2 [1]; virus production IC50) | CC50 (Vero cells) |
| --- | --- | --- | --- | --- | --- | --- | --- | --- | --- | --- | --- | --- | --- | --- | --- | --- |
| Nc1ncnc(N[C@@H]2O[C@H](CO)[C@@H](O)[C@H]2O)c1[N+](=O)[O-] [Compound 1, (2R,3R,4S,5R)-2-[(6-amino-5-nitropyrimidin-4-yl)amino]-5-(hydroxymethyl)oxolane-3,4-diol] | 108 µM | Potent antiviral activity | 0.188 µM | 3 log | some toxicity was observed | decrease significantly | 5 times | 0.176 µM | ~2 log | some toxicity was observed | decrease significantly | 3.09 µM | 3.09 µM | some degree of toxicity | – | – |
| NC(=O)c1ncn([C@@H]2O[C@H](CO)[C@@H](O)[C@H]2O)c1O [Mizoribine, 1-[(2R,3R,4S,5R)-3,4-dihydroxy-5-(hydroxymethyl)oxolan-2-yl]-5-hydroxy-1H-imidazole-4-carboxamide] | 850 µM | Potent antiviral activity | 0.66 µM | – | – | decrease significantly | – | – | – | – | does not impact | 191 µM | – | – | 3 times | 191 µM |
